Test results published in patent US8637521B2, “Substituted piperazin-2,5-diones and their use as multifunctional bioactive compounds” (priority 2006, dated 2014).
Read-outs that look alike come from different tables or passages of the source. Square brackets hold non-standard residues; d marks the D form. Peptide text beside a SMILES is read from it. * marks the point of attachment. X1 = O=C(O)CC[C@@H]1NC(=O)[C@H](CCCCN*)NC1=O

Columns and labels:
[1] = biological target: μ-receptor (isolated guinea pig ileum, GPI) (Cavia porcellus, UniProt P97266); test: Peripheral opioid activity: inhibition of electrically-induced contractions of isolated guinea pig ileum (GPI); settings: for Value of pD2 (M ± m): negative logarithm of EC50; for EC50: concentration reducing contraction amplitude by 50%, 5 replications
Protocol: The segment of GPI about 1 cm long was placed into a 10-ml organ bath containing Krebs solution at 34° C. […] Resting tension of the organ was 1 g. The segment of GPI was stimulated by single pulses duration 1 ms with 0.1 Hz at 80 V. The solution with isolated organs was constantly aerated. The contractions were recorded in an isometrical mode by a sensor K 30 (Hugo Sachs Elektronic KG) with paper register Rikadenki-series (Japan).
The substances tested were dissolved in distilled water and added cumulatively to the organ bath at a volume of 5 to 30 mcl. Each subsequent substance was added after the isolated organs were washed 3 or 4 times for 12-15 min. On the basis of the data obtained, dose-effects curves were plotted and the activity of substances was expressed by IC50 or pD2. The pD2 index was equal to a negative decimal logarithm of the substance concentration causing a 50% of the maximal effect.
New dermorphin analogues were tested in the standard model of Guinea pig ileum binding test.
For confirmation of opioid activity, the specific antagonist naloxson was used in concentration of 10^−5M. Each molecule was tested in 5 independent replications and relative activity was calculated as negative logarithm of EC50 (pD2).

[2] = tested on: BALB/c male mice; test: Antinociceptive activity, tail flick test with heat radiation, intragastral or intraperitoneal; type: in vivo; settings: for Effect duration: 15 min, cut-off 6 sec
Protocol: For estimation of oral activity of novel cyclopeptides of the present invention, the “tail flick” test was used. The results were compared with those obtained using intraperitoneal administration.
Antinociceptive activity of the peptides of the present invention was assessed in experiments on BALB/c male mice weighing 22 to 24 g. The peptides were dissolved in saline and administered intraperitoneally or intragastrally.
The “Tail flick” test (D'Amour, F. E. et al. “A Method for Determining Loss of Pain Sensation”, J. Pharmacol. Exp. Ther., Vol. 72, Pages 74 to 79, 1941) was performed on an analgesimeter type 812, Hugo Sachs Electronick KG. Antinociceptive activity was defined as the absence of tail flick response on stimulation with a focused bundle of heat radiation with 6 sec at baseline response of 2.0-3.0 seconds.
Statistical treatment of the results was carried out by the Student's paired t-test.

[3] = tested on: mice F1(CBAxC57D16); test: Analgesic activity, tail flick test, water 48° C., intraperitoneal; type: in vivo; settings: Table 10; for Initial sensitivity level: before injection
Protocol: Two hundred and twenty mice F1(CBAxC57D16) first generation hybrids were used for testing of analgesic activity using the “tail flick” test. The water temperature was at 48° C. The maximal effect was for the period of 30 seconds. All peptides were injected intraperitoneally in the doses of 5, 10 or 20 mg/kg. Analgesic effect was estimated in the time interval of 15 to 120 min after peptide injection. Student's t-criterion was used for statistical calculations of the results. Statistical significance were at the level of p≦0.05.

[4] = Table 11, oral 50 mg/kg group, before administration
[5] = Table 12, intraperitoneal 10 mg/kg group, before injection
[6] = Table 12, intraperitoneal 10 mg/kg

Chain of μ-receptor (isolated guinea pig ileum, GPI) (P97266 whole entry): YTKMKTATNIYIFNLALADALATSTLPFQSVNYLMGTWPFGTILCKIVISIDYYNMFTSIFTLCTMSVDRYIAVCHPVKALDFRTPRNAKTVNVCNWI

Which “Value of pD2 (M ± m)” value [1] does the source give for `CC(C)C[C@H](NC(=O)[C@H](Cc1ccccc1)NC(=O)CNC(=O)[C@@H](C)NC(=O)[C@@H](N)Cc1ccc(O)cc1)C(=O)N[C@@H](CCCNC(=N)N)C(=O)O` [Compound 56, H-Tyr-D-Ala-Gly-Phe-Leu-Arg-OH] (H-Y[dA]GFLR-OH) here?
The value was 7.53 ± 0.22.

And the EC50 ([1]; read-out: Median EC50 in M)?
The EC50 was 50 nM.

For `C[C@@H](NC(=O)[C@H](Cc1ccccc1)NC(=O)[C@@H](C)NC(=O)[C@@H](N)Cc1ccc(O)cc1)C(=O)N[C@@H](Cc1ccc(O)cc1)C(=O)N1CCC[C@H]1C(=O)N[C@@H](CO)C(=O)NCCCC[C@@H]1NC(=O)[C@H](CCC(=O)N[C@@H](Cc2c[nH]c3ccccc23)C(N)=O)NC1=O` [Compound 46, Cyclo-[L-Lys(H-Tyr-D-Ala-Phe-D-Ala-Tyr-Pro-Ser)-L-Glu(L-Trp-NH2)]], which “Value of pD2 (M ± m)” value [1] is on record?
The value was 7.96 ± 0.02.

What about the EC50 ([1]; read-out: Median EC50 in M) of the same compound?
The EC50 was 11 nM.

`COc1cccc(C2(O)CCCCC2CN(C)C)c1` (stereo not shown) [Tramadol] was tested. Which “Initial sensitivity level, mean” value [2, 4] did it give?
The value was 2.6 ± 0.1 s.

And the “Effect duration” value ([2]; Table 11, oral 50 mg/kg)?
Its value is 2.6 ± 0.1 s.

How did the “Value of pD2 (M ± m)” value [1] turn out when `C[C@@H](NC(=O)[C@H](Cc1ccccc1)NC(=O)[C@@H](C)NC(=O)[C@@H](N)Cc1ccc(O)cc1)C(=O)NCCCC[C@@H]1NC(=O)[C@H](CCC(=O)O)NC1=O` [Compound 44, Cyclo-[L-Lys(H-Tyr-D-Ala-Phe-D-Ala)-L-Glu(OH)]] (H-Y[dA]F[dA]-X1) was run?
The value was 6.15 ± 0.10.

And the EC50 ([1]; read-out: Median EC50 in M)?
The EC50 was 570 nM.

Which “Value of pD2 (M ± m)” value [1] does the source give for `C[C@@H](NC(=O)[C@H](Cc1ccccc1)NC(=O)[C@@H](C)NC(=O)[C@H](Cc1ccc(O)cc1)NC(=O)[C@@H](N)CCCNC(=N)N)C(=O)O` [Compound 53, H-Arg-Tyr-D-Ala-Phe-D-AlaOH] (H-RY[dA]F[dA]-OH) here?
Its value is 6.06 ± 0.12.

What about the EC50 ([1]; read-out: Median EC50 in M) of the same compound?
Its EC50 is 1000 nM.

What about the “Initial sensitivity level, mean” value [2, 5] of the same compound?
Its value is 2.4 ± 0.1 s.

What about the “Effect duration” value [2, 6] of the same compound?
Its value is 2.7 ± 0.1 s.

`C[C@@H](NC(=O)[C@H](Cc1ccc(O)cc1)NC(=O)[C@@H](N)CCCNC(=N)N)C(=O)N[C@@H](Cc1ccccc1)C(=O)NCC(=O)O` [Compound 52, Arg-Tyr-D-Ala-Phe-Gly-OH] (H-RY[dA]FG-OH; N-terminus assumed) was tested. Which EC50 ([1]; read-out: Median EC50) did it give?
The EC50 was 3000 nM.

What about the “Value of pD2 (M ± m)” value [1] of the same compound?
The value was 5.50 ± 0.07.

“Cyclo-[L-Lys(H-Tyr-D-Ala-Phe-D-Ala-Tyr-Pro-Ser)-L-Glu(L-Trp-NH2)]” was tested. Which “Initial sensitivity level” value ([3]; 10 mg/kg group) did it give?
Its value is 3.2 ± 0.3 s.

And the “Effect duration” value ([3]; 10 mg/kg i.p., 15 min)?
Its value is 11.6 ± 1.7 s.

And the “Effect duration” value ([3]; 10 mg/kg i.p., 30 min)?
The value was 15.5 ± 1.6 s.

And the “Effect duration” value ([3]; 10 mg/kg i.p., 45 min)?
The value was 15.7 ± 1.2 s.

What about the “Effect duration” value ([3]; 10 mg/kg i.p., 60 min) of the same compound?
Its value is 13.0 ± 1.5 s.

And the “Effect duration” value ([3]; 10 mg/kg i.p., 90 min)?
The value was 9.9 ± 1.5 s.

What about the “Effect duration” value ([3]; 10 mg/kg i.p., 120 min) of the same compound?
The value was 6.8 ± 0.5 s.

And the “Initial sensitivity level” value ([3]; 20 mg/kg group)?
The value was 3.0 ± 0.2 s.

And the “Effect duration” value ([3]; 20 mg/kg i.p., 15 min)?
Its value is 1.4 ± 1.6 s.

What about the “Effect duration” value ([3]; 20 mg/kg i.p., 30 min) of the same compound?
Its value is 18.1 ± 2.3 s.

What about the “Effect duration” value ([3]; 20 mg/kg i.p., 45 min) of the same compound?
The value was 16.8 ± 2.2 s.

What about the “Effect duration” value ([3]; 20 mg/kg i.p., 60 min) of the same compound?
Its value is 12.7 ± 1.8 s.

And the “Effect duration” value ([3]; 20 mg/kg i.p., 90 min)?
Its value is 11.7 ± 1.2 s.

And the “Effect duration” value ([3]; 20 mg/kg i.p., 120 min)?
Its value is 6.3 ± 0.6 s.

And the “Initial sensitivity level, mean” value [2, 4]?
The value was 2.7 ± 0.1 s.

What about the “Initial sensitivity level, mean” value [2, 5] of the same compound?
Its value is 2.1 ± 0.1 s.

What about the “Effect duration” value [2, 6] of the same compound?
The value was 3.9 ± 0.8 s.
